Reference: ChEMBL document CHEMBL4402555, “Impact of the structure-activity relationship of AHL analogues on quorum sensing in Gram-negative bacteria” (Bioorg Med Chem, 2020)

Columns and labels:
[1] = target: T1, Transcriptional activator protein LuxR (Aliivibrio fischeri, UniProt P12746); experiment: Antagonist activity at Aliivibrio fischeri LuxR by luminescence method
T1 sequence (P12746 whole entry): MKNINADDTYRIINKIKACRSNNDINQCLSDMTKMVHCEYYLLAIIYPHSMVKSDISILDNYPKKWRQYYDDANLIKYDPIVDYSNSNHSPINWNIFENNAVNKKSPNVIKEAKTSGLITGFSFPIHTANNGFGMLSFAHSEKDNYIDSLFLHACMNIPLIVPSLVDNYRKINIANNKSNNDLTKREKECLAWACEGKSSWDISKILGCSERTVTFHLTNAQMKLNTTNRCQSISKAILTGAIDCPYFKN

[2] = Inhibition of quorum sensing system in Pseudomonas aeruginosa
[3] = target: T1, Transcriptional activator protein LuxR; experiment: Inhibition of Aliivibrio fischeri LuxR by luminescence method
[4] = target: T1, Transcriptional activator protein LuxR; experiment: Agonist activity at Aliivibrio fischeri LuxR by luminescence method
[5] = target: T2, Transcriptional activator protein LasR (Pseudomonas aeruginosa (strain ATCC 15692 / PAO1 / 1C / PRS 101 / LMG12228), UniProt P25084); experiment: Inhibition of LasR in Pseudomonas aeruginosa PAO-JP2 harboring plasI-LVAgfp incubated for 6 hrs by fluorescence method
T2 sequence (P25084 whole entry): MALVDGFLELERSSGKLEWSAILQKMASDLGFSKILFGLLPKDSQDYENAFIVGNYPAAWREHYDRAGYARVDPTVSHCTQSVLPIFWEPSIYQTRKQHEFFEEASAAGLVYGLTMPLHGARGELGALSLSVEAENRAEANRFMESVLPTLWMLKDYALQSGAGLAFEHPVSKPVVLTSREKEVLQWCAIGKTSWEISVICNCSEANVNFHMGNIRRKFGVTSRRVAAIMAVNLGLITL

[6] = Activation of LasR in Escherichia coli JLD271 harboring pSC11/pJN105L using CPRG as substrate incubated for 4 hrs by Miller assay method
[7] = target: T2, Transcriptional activator protein LasR; experiment: Activation of LasR in Pseudomonas aeruginosa PAO-JP2 harboring plasI-LVAgfp incubated for 6 hrs by fluorescence method
[8] = target: T2, Transcriptional activator protein LasR; experiment: Antagonist activity at Pseudomonas aeruginosa LasR transfected with lasB-GFP by […] method
[9] = target: T1, Transcriptional activator protein LuxR; experiment: Antagonist activity at Aliivibrio fischeri ES114 LuxR after 4 to 8 hrs by luminescence method
[10] = Inhibition of LasR in Escherichia coli JLD271 harboring pSC11/pJN105L using CPRG as substrate incubated for 4 hrs by Miller assay method
[11] = tested on: Chromobacterium violaceum; experiment: Inhibition of CviI/CviR in Chromobacterium violaceum ATCC 31532 assessed as reduction in violacein production at 40 uM incubated for 24 hrs relative to control
[12] = Inhibition of CviI/CviR in Chromobacterium violaceum ATCC 31532 assessed as reduction in violacein production incubated for 24 hrs
[13] = tested on: Pseudomonas aeruginosa PAO1; experiment: Inhibition of LasI/LasR in Pseudomonas aeruginosa PAO1 assessed as reduction in swarming motility at 400 uM incubated for 18 hrs relative to control
[14] = tested on: Pseudomonas aeruginosa PAO1; experiment: Inhibition of LasI/LasR in Pseudomonas aeruginosa PAO1 assessed as reduction in protein-mediated transition from microcolonies to mature biofilm at 400 uM incubated for 22 hrs by crystal violet staining assay relative to control
[15] = tested on: Pseudomonas aeruginosa; experiment: Inhibition of LasI/LasR in Pseudomonas aeruginosa ATCC 9027 assessed as reduction in protein-mediated transition from microcolonies to mature biofilm at 400 uM incubated for 22 hrs by crystal violet staining assay relative to control
[16] = tested on: Pseudomonas aeruginosa; experiment: Inhibition of LasI/LasR in Pseudomonas aeruginosa ATCC 15422 assessed as reduction in protein-mediated transition from microcolonies to mature biofilm at 400 uM incubated for 22 hrs by crystal violet staining assay relative to control
[17] = target: T3, Regulatory protein SdiA (Escherichia coli (strain K12)) (UniProt P07026); experiment: Inhibition of sdiA in Escherichia coli K-12 assessed as reduction in protein-mediated transition from microcolonies to mature biofilm at 400 uM incubated for 22 hrs by crystal violet staining assay relative to control
T3 sequence (whole entry): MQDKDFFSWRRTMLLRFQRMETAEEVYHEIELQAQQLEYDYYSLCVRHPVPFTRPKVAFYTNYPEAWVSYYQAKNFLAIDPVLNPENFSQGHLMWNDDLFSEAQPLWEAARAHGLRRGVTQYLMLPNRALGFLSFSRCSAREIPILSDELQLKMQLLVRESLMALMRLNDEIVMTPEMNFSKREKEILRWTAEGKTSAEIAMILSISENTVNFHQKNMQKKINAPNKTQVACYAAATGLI

[18] = tested on: HL; experiment: Cytotoxicty against human HL cells at 100 uM after 24 hrs by CellTiter Glo assay relative to control; assay type: cell-based
[19] = tested on: RAW264.7; experiment: Cytotoxicty against mouse RAW264.7 cells at 100 uM after 24 hrs by CellTiter Glo assay relative to control; assay type: cell-based; settings: raw264.7, 24 h
[20] = Inhibition of quorum sensing system in Pseudomonas aeruginosa transfected with lasB-lacZ in presence of PA1

Compound `O=C1OCCC1NS(=O)(=O)CCCc1ccccc1` (stereo not drawn) has an IC50 [1] of 20 µM.

`CCCCCCCCC(=O)CC(=O)Nc1ccccc1` gave an IC50 [2] of 5.5 µM.

`CCCCCCCCCC(=O)N[C@H]1CCSC1=O` showed an IC50 [3] of 0.13 µM.

Compound `O=C(Cc1ccccc1)CS(=O)(=O)NC1CCOC1=O` (stereo not drawn) has an IC50 [1] of 40 µM.

In the case of `O=C(CC(=O)NC1CCOC1=O)Cc1ccc(F)cc1` (stereo not drawn), the IC50 [1] is reported as 4 µM.

`O=C(CC(=O)N[C@H]1CCOC1=O)CC1CCCC1` showed an EC50 [4] of 0.25 µM.

With `CCC(=O)CC(=O)Nc1ccccc1` the IC50 [5] was 9.7 µM and the EC50 [6] was 0.92 µM.

In the case of `CCCCCCS(=O)(=O)NC1CCOC1=O` (stereo not drawn), the IC50 [1] is reported as 6.5 µM.

Compound `O=C1OCCC1NS(=O)(=O)CCc1ccccc1` (stereo not drawn) has an IC50 [1] of 3 µM.

For `O=C(COc1cccc(Br)c1)N[C@H]1CCSC1=O`, the EC50 [7] was 4.2 µM and the EC50 [6] was 0.013 µM.

Compound `Cc1ccc(SCC(=O)N[C@H]2CCOC2=O)cc1` has an IC50 [8] of 50 µM.

Compound `CCCCCCC[S+]([O-])CC(=O)NC1CCOC1=O` (stereo not drawn) has an IC50 [8] of 50 µM.

Work on `O=C(Cc1ccc(C(F)(F)F)cc1)N[C@H]1CCOC1=O` yielded an IC50 [9] of 0.6 µM, an IC50 [5] of 3 µM and an EC50 [7] of 140 µM. The EC50 [6] was 0.65 µM.

Compound `O=C(CC(=O)NC1CCOC1=O)Cc1ccccc1` (stereo not drawn) has an IC50 [1] of 2 µM.

For `O=C(CCCc1ccccc1)N[C@H]1CCOC1=O`, the IC50 [5] was 175 µM and the IC50 [10] was 1 µM.

With `O=C(CCCc1ccccc1)NC1CCOC1=O` (stereo not drawn) the IC50 [1] was 2 to 3 µM.

Work on `O=C(CC(=O)NC1CCOC1=O)Cc1cccc(Cl)c1` (stereo not drawn) yielded an IC50 [1] of 4 µM.

For `O=C(CSCc1ccccc1)NC1CCOC1=O` (stereo not drawn), the IC50 [1] was 2 to 3 µM.

In the case of `O=C(Cc1ccc(Cl)cc1)N[C@H]1CCOC1=O`, the IC50 [9] is reported as 4.1 µM.

With `CCC(=O)Oc1c(-c2ccccc2Cl)oc2ccccc2c1=O` the inhibition [11] was 99.7%, the IC50 [12] was 9.6 µM and the inhibition [13] was 72.1%. It also gave an inhibition [14] of 42.3%, an inhibition [15] of 27.2% and an inhibition [16] of 11.2%. The inhibition [17] was 51.3%, the Activity [18] was 11.2% and the Activity [19] was 97.7%.

`CCCCCCCCCC(=O)NC1CCCC1` [N-CYCLOPENTYLDECANAMIDE] showed an IC50 [5] greater than 50 µM and an IC50 [20] of 80 µM.

`CCC(=O)CC(=O)NC1CCCCC1=O` (stereo not drawn) gave an IC50 [5] greater than 100 µM, an EC50 [7] greater than 200 µM and an EC50 [6] of 0.24 µM.

Work on `O=C(Cc1ccc(-c2ccccc2)cc1)N[C@H]1CCOC1=O` yielded an IC50 [9] of 1.1 µM.

With `O=C(NCc1cc(Br)cc(Br)c1OC(=O)c1ccccc1[N+](=O)[O-])c1ccccc1Cl` the EC50 [6] was 0.0078 µM.

Compound `O=C(CC(=O)N[C@H]1CCOC1=O)Cc1ccccc1` has an IC50 [10] of 2.8 µM.

For `O=C(Cc1ccc(I)cc1)N[C@H]1CCOC1=O`, the IC50 [9] was 0.9 µM.

For `CCCCCCCCCSCC(=O)N[C@H]1CCOC1=O`, the IC50 [8] was 50 µM.

For `O=C(Cc1ccc([N+](=O)[O-])cc1)N[C@H]1CCOC1=O`, the IC50 [9] was 1 µM.

Compound `O=C(CC(=O)N[C@H]1CCOC1=O)CC1CCCCC1` has an EC50 [4] of 1.1 µM.

For `CCCCCS(=O)(=O)NC1CCOC1=O` (stereo not drawn), the IC50 [1] was 2 µM.

In the case of `O=C1OCCC1NS(=O)(=O)Cc1ccccc1` (stereo not drawn), the IC50 [1] is reported as 40 µM.
